Laboratory results as given in article PMC9792171, “Design and synthesis of new thiazolidinone/uracil derivatives as antiproliferative agents targeting EGFR and/or BRAF^V600E” (Frontiers in Chemistry, 2022).

What was measured:
[1] = system: A-549 (epithelial cancer cell line); test: Antiproliferative MTT assay, A-549; type: cell-based; conditions: Homo sapiens, A549; A-549, MTT; read-out: Antiproliferative activity IC50 ± SEM (nM) A-549
Method: (§1) Using the MTT assay ([Abdelrahman et al., 2017]; [El-Sherief et al., 2018]) and doxorubicin as the reference drug, 3a-f and 5a-l were tested for antiproliferative activity against four human cancer cell lines: Panc-1 (pancreas cancer cell line), MCF-7 (breast cancer cell line), HT-29 (colon cancer cell line), and A-549 (epithelial cancer cell line).
(§2) To explore the antiproliferative potential of compounds MTT assay was performed according to previously reported procedure (El-Sherief, H.A.M., et al., 2018; Abdelrahman, M. H., et al., 2017) using different cell lines to explore the antiproliferative potential of compounds propidium iodide fluorescence assay was performed using different cell lines. To calculate the total nuclear DNA, a fluorescent dye (propidium iodide, PI) is used which can attach to the DNA, thus offering a quick and precise technique. PI cannot pass through the cell membrane and its signal intensity can be considered as directly proportional to quantity of cellular DNA. Cells whose cell membranes are damaged or have changed permeability are counted as dead ones. The assay was performed by seeding the cells of different cell lines at a density of 3000-7500 cells/well (in 200µl medium) in culture plates followed by incubation for 24h at 37 °C in humidified 5% CO2/95% air atmospheric conditions. The medium was removed; the compounds were added to the plates at 10 µM concentrations (in 0.1% DMSO) in triplicates, followed by incubation for 48 h. DMSO (0.1%) was used as control. After incubation, medium was removed followed by the addition of PI (25 µl, 50µg/mL in water/medium) to each well of the plates. At -80 °C, the plates were allowed to freeze for 24 h, followed by thawing at 25 °C. A fluorometer (Polar-Star BMG Tech) was used to record the readings at excitation and emission wavelengths of 530 and 620 nm for each well. The percentage cytotoxicity of compounds was calculated using the following formula: […]

[2] = system: Panc-1 (pancreas cancer cell line); test: Antiproliferative MTT assay, Panc-1; type: cell-based; conditions: Homo sapiens; Panc-1, MTT; read-out: Antiproliferative activity IC50 ± SEM (nM) Panc-1
Method: as §1, §2

[3] = system: HT-29 (colon cancer cell line); test: Antiproliferative MTT assay, HT-29; type: cell-based; conditions: Homo sapiens; HT-29, MTT; read-out: Antiproliferative activity IC50 ± SEM (nM) HT-29
Method: as §1, §2

[4] = system: four human cancer cell lines (A-549, MCF-7, Panc-1, HT-29); test: Antiproliferative MTT assay, average of four cancer cell lines (GI50); type: cell-based; conditions: for IC50: Homo sapiens, average of A-549, MCF-7, Panc-1, HT-29
Method: as §1, with “line). […]” for “line).”
as §2

EGFR = biological target: T1, EGFR (Homo sapiens, UniProt P00533); test: EGFR inhibitory assay (EGFR-TK, DELFIA/time-resolved fluorometry); type: biochemical; conditions: for IC50: read-out: EGFR inhibition IC50 ± SEM
T1 construct: EGFR cytoplasmic domain (EGFR-CD, amino acids 645–1186); His6 (N); made in house; host or cells: Sf-9 insect cells (baculovirus; pBlueBacHis2B and pFASTBacHTc)
T1 sequence (P00533 669-1210): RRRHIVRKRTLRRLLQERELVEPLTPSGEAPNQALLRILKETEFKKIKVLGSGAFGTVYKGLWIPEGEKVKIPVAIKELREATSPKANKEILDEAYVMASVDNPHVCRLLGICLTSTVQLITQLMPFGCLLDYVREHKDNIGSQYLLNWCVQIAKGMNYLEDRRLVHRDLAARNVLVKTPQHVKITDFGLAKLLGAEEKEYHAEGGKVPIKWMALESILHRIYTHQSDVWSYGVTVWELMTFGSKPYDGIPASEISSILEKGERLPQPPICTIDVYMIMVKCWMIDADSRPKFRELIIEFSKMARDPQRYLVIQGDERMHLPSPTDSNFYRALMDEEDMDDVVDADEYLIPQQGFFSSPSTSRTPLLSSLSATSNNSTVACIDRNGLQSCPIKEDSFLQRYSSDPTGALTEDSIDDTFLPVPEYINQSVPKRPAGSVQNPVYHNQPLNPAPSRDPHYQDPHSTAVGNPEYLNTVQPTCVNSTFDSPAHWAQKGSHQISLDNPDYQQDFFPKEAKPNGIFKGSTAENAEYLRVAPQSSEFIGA
Method: 5ʹ upstream to the EGFR sequence comprised a sequence that encoded (His)6. Sf-9 cells were infected for 72h for protein expression. The pellets of Sf-9 cells were solubilized in a buffer containing sodium vanadate (100 µM), aprotinin (10 µg/mL), triton (1%), HEPES buffer (50mM), ammonium molybdate (10 µM), benzamidine HCl (16 µg/mL), NaCl (10 mM), leupeptin (10 µg/mL) and pepstatin (10 µg/mL) at 0°C for 20 min at pH 7.4, followed by centrifugation for 20 min. To eliminate the non-specifically bound material, a Ni-NTA super flow packed column was used to pass through and wash the crude extract supernatant first with 10 mM and then with 100 mM imidazole. Histidine-linked proteins were first eluted with 250 and then with 500 mM imidazole after dialysis against NaCl (50 mM), HEPES (20 mM), glycerol (10%) and 1 µg/mL each of aprotinin, leupeptin and pepstatin for 120 min. The purification was performed either at 4 °C or on ice. To record autophosphorylation level, EGFR kinase assay was carried out based on DELFIA/Time-Resolved Fluorometry. The compounds were first dissolved in DMSO absolute, after dilution to appropriate concentration using HEPES (25 mM) at pH 7.4. Each compound (10 µL) was incubated with recombinant enzyme (10 µL, 5 ng for EGFR, 1:80 dilution in 100 mM HEPES) for 10 min at 25 °C, after the addition of 5X buffer (10 µL, containing 2 mM MnCl2, 100 µM Na3VO4, 20 mM HEPES and 1 mM DTT) and ATP-MgCl2 (20 µL, containing 0.1 mM ATP and 50 mM MgCl2) and incubation for 1h. The negative and positive controls were included in each plate by the incubation of enzyme either with or without ATP-MgCl2. The liquid was removed after incubation and the plates were washed thrice using wash buffer. Europium-tagged antiphosphotyrosine antibody (75 µL, 400 ng) was added to each well followed by incubation of 1h and then washing of the plates using buffer. The enhancement solution was added to each well and the signal was recorded at excitation and emission wavelengths of 340 at 615 nm. The autophosphorylation percentage inhibition by compounds was calculated using the following equation: […]

BRAF^V600E = biological target: T2, BRAF^V600E (Mus musculus, UniProt P28028, V585E); test: BRAF^V600E inhibitory assay (V600E mutant BRAF kinase assay); type: biochemical; conditions: read-out: BRAF^V600E inhibition IC50 ± SEM
T2 construct: Mouse full-length GST-tagged BRAF^V600E (7.5 ng, Invitrogen, PV3849); GST; purchased Invitrogen PV3849
T2 sequence (P28028 whole entry V585E): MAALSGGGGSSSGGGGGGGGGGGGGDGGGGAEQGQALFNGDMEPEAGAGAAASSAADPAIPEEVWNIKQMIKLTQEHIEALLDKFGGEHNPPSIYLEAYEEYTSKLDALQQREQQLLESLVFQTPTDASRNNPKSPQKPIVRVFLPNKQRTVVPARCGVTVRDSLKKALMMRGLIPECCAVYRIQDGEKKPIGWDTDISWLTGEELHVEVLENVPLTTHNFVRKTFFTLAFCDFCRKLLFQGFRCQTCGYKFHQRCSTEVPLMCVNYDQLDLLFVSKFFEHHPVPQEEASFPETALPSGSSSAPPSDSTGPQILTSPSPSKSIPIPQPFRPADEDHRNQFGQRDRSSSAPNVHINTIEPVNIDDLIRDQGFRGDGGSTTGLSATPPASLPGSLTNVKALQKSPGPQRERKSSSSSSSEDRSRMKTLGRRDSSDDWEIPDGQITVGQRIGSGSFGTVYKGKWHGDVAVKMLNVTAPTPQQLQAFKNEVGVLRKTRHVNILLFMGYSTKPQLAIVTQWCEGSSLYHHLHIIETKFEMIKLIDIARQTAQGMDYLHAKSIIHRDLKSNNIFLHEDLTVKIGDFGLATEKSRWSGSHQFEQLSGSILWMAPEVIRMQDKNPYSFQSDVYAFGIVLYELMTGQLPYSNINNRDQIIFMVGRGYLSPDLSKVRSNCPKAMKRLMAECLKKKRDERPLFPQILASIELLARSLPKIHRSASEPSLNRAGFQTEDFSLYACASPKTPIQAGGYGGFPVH
Method: Mouse full-length GST-tagged BRAF^V600E (7.5 ng, Invitrogen, PV3849) was pre-incubated with drug (1 µL) and assay dilution buffer (4 µL) for 60 min at 25 °C. In assay dilution buffer, a solution (5 µL) containing MgCl2 (30 mM), ATP (200 µM), recombinant human full length (200 ng) […] N-terminal His-tagged MEK1 (Invitrogen) was added to start the assay, subsequent to incubation for 25 min at 25 °C. The assay was stopped using 5X protein denaturing buffer (LDS) solution (5 µL). To further denature the protein, heat (70° C) was applied for 5 min. […] 10 µL of each reaction was loaded into the precast plates and electrophoresis was allowed to proceed. After completion of electrophoresis, the front part of the precast gel plate (holding hot ATP) was cut and afterwards cast-off. The dried gel was developed using a phosphor screen. […] To study the effect of compounds on cell-based pERK1/2 activity in cancer cells, commercially available ELISA kits (Invitrogen) were used according to manufacturer’s instructions.

| IC50 [1] [nM] | IC50 [2] [nM] | IC50 [3] [nM] | IC50 [4] [nM] | IC50 (EGFR) [nM] | IC50 (BRAF^V600E) [nM] | fold less potent than erlotinib (EGFR IC50) (EGFR; ratio of EGFR IC50 values) [fold] | fold less potent than compound 5j (GI50) ([4]; ratio of GI50 values) [fold] | Compound |
| --- | --- | --- | --- | --- | --- | --- | --- | --- |
| 1100 ± 100 | 1200 ± 100 | 1200 ± 100 | 1100 | 87 ± 5 | 115 ± 12 |  |  | COC(=O)/C=C1\S/C(=N\c2c[nH]c(=O)[nH]c2=O)N(Cc2ccccc2)C1=O [Compound 5j, (Z)-Methyl-2-((Z)-3-benzyl-2-((2,4-dioxo-1,2,3,4-tetrahydropyrimidin-5-yl)imino)-4-oxothiazolidin-5-ylidene)acetate] |
| 1800 ± 200 | 2100 ± 200 | 2100 ± 200 | 1850 | 125 ± 11 | 148 ± 12 | 1.6 |  | COc1cccc(NC(=S)Nc2c[nH]c(=O)[nH]c2=O)c1 [Compound 3c, 1-(2,4-Dioxo-1,2,3,4-tetrahydropyrimidin-5-yl)-3-(3-methoxyphenyl)thiourea] |
| 1200 ± 100 | 1400 ± 100 | 1400 ± 100 | 1300 | 91 ± 7 | 93 ± 8 |  | 1.2 | CCOC(=O)/C=C1\S/C(=N\c2c[nH]c(=O)[nH]c2=O)N(c2ccc(C)cc2)C1=O [Compound 5b, (Z)-Ethyl-2-((Z)-2-((2,4-dioxo-1,2,3,4-tetrahydropyrimidin-5-yl)imino)-4-oxo-3-(p-tolyl)thiazolidin-5-ylidene)acetate] |
| 1300 ± 100 | 1500 ± 100 | 1600 ± 100 | 1350 | 96 ± 7 | 122 ± 12 |  |  | COC(=O)/C=C1\S/C(=N\c2c[nH]c(=O)[nH]c2=O)N(c2cccc(OC)c2)C1=O [Compound 5i, (Z)-Methyl-2-((Z)-2-((2,4-dioxo-1,2,3,4-tetrahydropyrimidin-5-yl)imino)-3-(3-methoxyphenyl)-4-oxothiazolidin-5-ylidene)acetate] |
| 1400 ± 100 | 1800 ± 100 | 1700 ± 100 | 1650 | 112 ± 10 | 137 ± 12 |  |  | COC(=O)/C=C1\S/C(=N\c2c[nH]c(=O)[nH]c2=O)N(c2ccc(C)cc2)C1=O [Compound 5h, (Z)-Methyl-2-((Z)-2-((2,4-dioxo-1,2,3,4-tetrahydropyrimidin-5-yl)imino)-4-oxo-3-(p-tolyl)-thiazolidin-5-ylidene)acetate] |
| 1500 ± 100 | 1900 ± 200 | 1800 ± 100 | 1700 | 115 ± 10 | 107 ± 10 |  |  | CCOC(=O)/C=C1\S/C(=N\c2c[nH]c(=O)[nH]c2=O)N(c2cccc(OC)c2)C1=O [Compound 5c, (Z)-Ethyl-2-((Z)-2-((2,4-dioxo-1,2,3,4-tetrahydropyrimidin-5-yl)imino)-3-(3-methoxyphenyl)-4-oxo-thiazolidin-5-ylidene)acetate] |
